One assay deals with BTH01. As to the kind of experiment: Phenotypic antibiotic susceptibility (MIC), research cell bank. It is filed as cell-based, Bacteroides thetaiotaomicron. The settings on record: for MIC: Bacteroides thetaiotaomicron, read-out: Determined MIC; for MIC Interpretation: against BTH01.
The subject of the next assay is EHA01. As to the kind of experiment: Phenotypic antibiotic susceptibility (MIC, Etests), research cell bank. It is filed as cell-based, Eubacterium hallii. To be noted: for MIC: Anaerobutyricum hallii, read-out: Determined MIC; for MIC Interpretation: against EHA01.
Another assay has as its system RHO01. Described as above. The settings on record: for MIC: Roseburia hominis, read-out: Determined MIC; for MIC Interpretation: against RHO01. In kind it is cell-based, Roseburia hominis.

Converted amounts (≈) assume the structure as drawn. Like-named read-outs stand apart in the source and are kept apart here.

As a reminder, the MIC is the least concentration at which growth counts as inhibited. As for `CC1(C)S[C@@H]2[C@H](NC(=O)[C@H](N)c3ccccc3)C(=O)N2[C@H]1C(=O)O` [Ampicillin], the MIC in the assay with BTH01 (against BTH01, agar dilution) was 32 µg/mL (≈ 91.6 µM); in the assay on EHA01 (against EHA01, Etests) it was 0.06 µg/mL (≈ 0.172 µM); in the assay with RHO01 (against RHO01, Etests) it was no more than 0.016 µg/mL. For the same molecule, the results for the “MIC Interpretation” value with BTH01, with EHA01 and against RHO01 were “R”, “S” and “S”, respectively.

As to `CO[C@@]1(NC(=O)C2SC(=C(C(N)=O)C(=O)O)S2)C(=O)N2C(C(=O)O)=C(CSc3nnnn3C)CS[C@@H]21` (some centres unmarked) [Cefotetan], the MIC in the assay with BTH01 (against BTH01, agar dilution) was determined as 256 µg/mL (≈ 445 µM). For the same molecule, the “MIC Interpretation” value with BTH01 is reported as “R”.

Regarding `CCC[C@@H]1C[C@@H](C(=O)N[C@@H]([C@H]2O[C@H](SC)[C@H](O)[C@@H](O)[C@H]2O)[C@H](C)Cl)N(C)C1` [Clindamycin], the MIC was greater than 32 µg/mL with BTH01 (against BTH01, agar dilution); 0.03 µg/mL (≈ 0.0706 µM) with EHA01 (against EHA01, Etests); no more than 0.016 µg/mL in the assay on RHO01 (against RHO01, Etests). The “MIC Interpretation” value in the assay on BTH01 is recorded as “R”; with EHA01, “S”; with RHO01 it was “S”.

Consider `C[C@@H](O)[C@H]1C(=O)N2C(C(=O)O)=C(SCCN=CN)C[C@H]12` [Imipenem], for which the MIC in the assay with BTH01 (against BTH01, agar dilution) stood at 0.5 µg/mL (≈ 1.67 µM); in the assay on EHA01 (against EHA01, Etests), 0.008 µg/mL (≈ 0.0267 µM); in the assay on RHO01 (against RHO01, Etests), 0.12 µg/mL (≈ 0.401 µM). For the same molecule, the “MIC Interpretation” value with BTH01, against EHA01 and against RHO01 was “S” each time.

For `Cc1ncc([N+](=O)[O-])n1CCO` [Metronidazole], the MIC with BTH01 (against BTH01, agar dilution) came to 2 µg/mL (≈ 11.7 µM); with EHA01 (against EHA01, Etests) it was 0.06 µg/mL (≈ 0.351 µM); with RHO01 (against RHO01, Etests), 0.03 µg/mL (≈ 0.175 µM). In addition, the “MIC Interpretation” value against BTH01, with EHA01 and against RHO01 was “S” each time.

On to `COc1c(N2C[C@@H]3CCCN[C@@H]3C2)c(F)cc2c(=O)c(C(=O)O)cn(C3CC3)c12` [Moxifloxacin], for which the MIC worked out at 2 µg/mL (≈ 4.98 µM) in the assay with BTH01 (against BTH01, agar dilution); 2 µg/mL (≈ 4.98 µM) in the assay with EHA01 (against EHA01, Etests); 32 µg/mL (≈ 79.7 µM) in the assay on RHO01 (against RHO01, Etests). The “MIC Interpretation” value in the assay with BTH01 is “S”; against EHA01, “S”; with RHO01, “R”.

Consider `CN[C@H](CC(C)C)C(=O)N[C@H]1C(=O)N[C@@H](CC(N)=O)C(=O)N[C@H]2C(=O)N[C@H]3C(=O)N[C@H](C(=O)N[C@H](C(=O)O)c4cc(O)cc(O)c4-c4cc3ccc4O)[C@H](O)c3ccc(c(Cl)c3)Oc3cc2cc(c3O[C@@H]2O[C@H](CO)[C@@H](O)[C@H](O)[C@H]2O[C@H]2C[C@](C)(N)[C@H](O)[C@H](C)O2)Oc2ccc(cc2Cl)[C@H]1O` [Vancomycin], for which the MIC came out at 64 µg/mL (≈ 44.2 µM) in the assay on BTH01, 0.12 µg/mL (≈ 0.0828 µM) in the assay with EHA01 and 0.25 µg/mL (≈ 0.173 µM) with RHO01.

(Values after patent US12144834B2, “Methods and compositions for treating gastrointestinal and inflammatory disorders” (Xbiome Inc., priority 2018, dated 2024).)
